Earlier results in patent US11338055B2, “Wound dressing” (Animal Ethics Pty Ltd, priority 2017, dated 2022).

Details: typically up to about; depending on the method of administration

Compound: CCCCN1CCCCC1C(=O)Nc1c(C)cccc1C (stereo not shown) [bupivacaine]
- duration of anaesthesia: 6 to 12 h
